Data published in patent US8343912B2, “Antibiotic compositions for the treatment of gram negative infections” (priority 2008, dated 2013).
“Also recorded” adds a separate entry of the source. Numbered stars: 1 amine (or outer) side, 2 acyl side, 3 side chain; on linkers, the order of the positions; unused ones are H or OH. Bridge positions count the residues as written; N and C are the ends. Square brackets hold non-standard residues; d marks the D form. Peptide text beside a SMILES is read from it. * marks the point of attachment. Octanoyl(6-Me) = CCC(C)CCCCC(=O)*; NH(2-ClPh) = Clc1ccccc1N*; Dab = NCC[CH](N)C(=O)O; CO = O=C([*:1])[*:2]

Tests used:
cynomolgus monkeys = assay: Comparative 7 day repeat dose safety study, renal toxicity; type: in vivo, cynomolgus monkey; settings: for renal histologic findings: IV infusion; for nephrotoxicity compared with polymyxin B: equivalent antibacterial activity doses (75,000 to 112,500 IU/kg), FIG. 2
Description: A comparative 7 day repeat dose safety study in cynomologous monkeys between polymyxin B and Compound 5 was performed.
Animals were 2.52 kg to 3.77 kg and were 4.2 to 5.7 years old. During acclimation, a chronic femoral intravenous catheter was implanted into all animals to permit continuous infusion. The femoral vein catheter was routed subcutaneously to exit through a prepared incision in the interscapular region. Animals were fitted with jackets connected to flexible stainless steel tethers that protected the catheters.
(§1) Monkeys were dosed twice or three times daily for seven days with control article (0.9% Sodium Chloride for Injection, USP), 25000 IU/kg Compound 5, 37500 IU/kg Compound 5, or 37500 IU/kg PMB (Alpharma, lot number A1411079). Each administration was given via a targeted 30-minute intravenous infusion.
(§2) The following parameters were evaluated: daily clinical observations and qualitative food consumption, body weight (twice prior to the first dosing and at necropsy), urinalysis, hematology, coagulation, serum chemistry, toxicokinetics, gross pathology, organ weights, and histopathology of the kidneys and injection sites, and of the liver and sciatic nerves of control and high dose groups. Animals were evaluated through Study Day 7 and then terminated.
FIG. 2 is a scatter plot showing nephrotoxicity data measured as a cumulative score based upon tubular degeneration, tubular regeneration, tubular dilatation, and tubular casts. Each category was scored on a basis from 0 to 4 based on the severity of each finding.
For comparison of Compound 5 and polymyxin B, the nephrotoxicity was measured as a cumulative score based upon tubular degeneration, tubular regeneration, tubular dilatation, and tubular casts. Each category was scored on a basis from 0 to 4 based on the severity of each finding and individual monkeys are represented in the FIG. 2.

[1] = Pharmacokinetics/toxicokinetics in repeat-dose studies; type: in vivo, cynomolgus monkey
Description: as §1, §2
At higher dose levels, a slightly greater than dose-proportional response was evident in systemic exposure (AUC) and peak plasma concentrations (Cmax). The decrease in clearance at these higher doses may explain the non-linear systemic exposure to Compound 5.

P. aeruginosa #44 = assay: MIC, broth microdilution; type: cell-based, Pseudomonas aeruginosa; settings: for MIC against P. aeruginosa #44: Table 5, range of repeated tests
Description: (§3) MIC testing was performed according to Clinical and Laboratory Standards Institute (CLSI) M7-A7 (2006) broth microdilution methods. Unless otherwise indicated, MIC values are provided in units of micrograms per milliliter.
(§4) One day prior to testing, individual colonies were isolated by streaking onto rich, non-selective Tryptic Soy agar with 5% lysed sheeps blood (TSAB) with incubation at 35-37° C. for 18-24 hours.
(§5) Cultures were prepared by touching 3-5 colonies into 3 mL of Cation adjusted Mueller Hinton Broth (caMHB) in a 14 mL tube (CaMHB was prepared and sterilized according to manufacturer's specifications). Cultures were grown at 37° C. 200 rpm for approximately four hours prior to density adjustment for addition to the MIC assay.
(§6) OD600 of growing cultures was measured and adjusted to approximately 10^5 colony forming units per mL (CFU/mL) in caMHB for MIC inoculation (approximately OD600 0.001).
(§7) Diluted cultures were used to inoculate 50 μL per well in broth microdilution assays (final volume 100 μl per well; compounds were prepared in two-fold dilutions).
(§8) Plates were incubated 16-20 hrs at 37° C., with shaking at 200 rpm.
(§9) OD600 was determined for all wells. Growth was defined as OD600>0.1. MICs were defined as the lowest concentration producing no visible turbidity (OD600<0.1).
P. aeruginosa #44 or K. pneumoniae #21 were grown in cation adjusted Mueller Hinton Broth (caMHB) (catalog #B12322; Fisher Scientific, Pittsburgh, Pa.) at 37° C. MIC testing was performed according to Clinical and Laboratory Standards Institute [CLSI, formerly National Committee for Clinical Laboratory Standards (NCCLS), Wayne, Pa.] guidelines for broth microdilution.
MIC testing was performed according to CLSI (formerly NCCLS) guidelines for broth microdilution.

Enterobacter = assay: MIC90, broth microdilution, panel of Gram negative clinical isolates; type: cell-based; settings: 20 strains; some strains multi-drug resistant
Description: (§10) To evaluate the potency and spectrum of compounds of Formula (I), (i.e., Compounds designated 5 and 6), a study was conducted that put together a panel of 455 Gram negative strains, which included multi-drug resistant clinical isolates selected from various surveillance programs. Table 3A lists the strains that were included in the study and the activity of Compound 5, Compound 6, and colistin (polymyxin E, abbreviated PME). Strains with acquired resistance to colistin and/or carbapenems and/or broad spectrum cephalosporins were pre-selected and included in all organism groups evaluated.
as §3, §4, §5, §6, §7, §8, §9

Citrobacter spp. = assay: as above; type: cell-based; settings: 20 strains; some strains multi-drug resistant
Description: as §10, §3, §4, §5, §6, §7, §8, §9

Acinetobacter spp = assay: as above; type: cell-based; settings: 81 strains
Description: as §10, §3, §4, §5, §6, §7, §8, §9

| SMILES | renal histologic findings (cynomolgus monkeys; 75,000 IU/kg/day, 7 days) | renal histologic findings (cynomolgus monkeys; 112,500 IU/kg/day, 7 days) | nephrotoxicity compared with polymyxin B (cynomolgus monkeys) | nephrotoxicity compared with polymyxin B (cynomolgus monkeys; listed as compound 5) | volume of distribution ([1]; all species) | clearance (CL) ([1]; cynomolgus monkey, in vivo) | MIC P. aeruginosa 44 (P. aeruginosa #44; Table 3B) [micrograms/mL] | MIC against P. aeruginosa #44 (P. aeruginosa #44) | MIC90 Enterobacter (Enterobacter) [micrograms/mL] | MIC90 Citrobacter spp. (Citrobacter spp.) [micrograms/mL] | MIC90 Acinetobacter spp (Acinetobacter spp) [micrograms/mL] | serum creatinine and BUN concentrations (cynomolgus monkeys; 75,000 IU/kg/day, 7 days) | serum creatinine and blood urea nitrogen concentrations (cynomolgus monkeys; 112,500 IU/kg/day, 7 days) | maximal plasma concentrations (Cmax) relative to Compound 5 ([1]; greater, Day 1, 37,500 IU/kg) | systemic exposure (AUC) relative to Compound 5 ([1]; greater, same activity-normalized dose) [fold] | systemic clearance relative to Compound 5 ([1]; less, Day 1) [fold] | volume of distribution relative to Compound 5 ([1]; lower) |
| --- | --- | --- | --- | --- | --- | --- | --- | --- | --- | --- | --- | --- | --- | --- | --- | --- | --- |
| CC(C)C[C@@H]1NC(=O)[C@@H](Cc2ccccc2)NC(=O)[C@H](CCN)NC(=O)[C@@H](NC(=O)[C@H](CCN)NC(=O)[C@@H](NC(=O)[C@H](CCN)NC(=O)Nc2ccccc2Cl)[C@@H](C)O)CCNC(=O)[C@H]([C@@H](C)O)NC(=O)[C@H](CCN)NC(=O)[C@H](CCN)NC1=O [Compound 5, (S)-4-amino-N-((2S,3R)-1-((S)-4-amino-1-oxo-1-((3S,6S,9S,12S,15R,18S,21S)-6,9,18-tris(2-aminoethyl)-15-benzyl-3-((R)-1-hydroxyethyl)-12-isobutyl-2,5,8,11,14,17,20-heptaoxo-1,4,7,10,13,16,19-heptaazacyclotricosan-21-ylamino)butan-2-ylamino)-3-hydroxy-1-oxobutan-2-yl)-2-(3-(2-chlorophenyl)ureido)butanamide] ({NH(2-ClPh)-CO}-[Dab]T[Dab][Dab][Dab][dF]L[Dab][Dab]T; lactam 4-C) | very minimal histologic changes | increases in numbers and severity of cortical and medullary tubules containing necrotic or degenerative cells | notably less severe nephrotoxicity; also recorded: markedly less nephrotoxic | reduced renal toxicity | greater than blood volume | less than hepatic blood flow | 1 | 1-2 micrograms/ml | >16 | 0.5 | 4 | – | – | – | – | – | – |
| CCC(C)CCCCC(=O)NC(CCN)C(=O)NC(C(=O)NC(CCN)C(=O)NC1CCNC(=O)C(C(C)O)NC(=O)C(CCN)NC(=O)C(CCN)NC(=O)C(CC(C)C)NC(=O)C(Cc2ccccc2)NC(=O)C(CCN)NC1=O)C(C)O (centres unmarked) [Polymyxin B, polymyxin B, reference compound] ({Octanoyl(6-Me)}-[Dab]T[Dab][Dab][Dab]FL[Dab][Dab]T; lactam 4-C; configuration not given here) | renal tubular histology similar to findings from animals receiving 112,500 IU/kg/day of Compound 5 | involvement of a majority of cortical and some medullary tubules containing necrotic or degenerate cells | – | – | – | – | – | 1-2 micrograms/ml | >64 | 1 | 2 | mild increases | elevations | approximately 2 fold | 2.5 | 2 to 3 | approximately 2 fold |
